Test results reported in ChEMBL document CHEMBL1150587, “Evaluation of the potential cancer chemotherapeutic efficacy of natural product isolates employing in vivo hollow fiber tests” (J Nat Prod, 2002).
The source made the active and inactive calls. No cut-off for these calls is given here.

Experiments:
Mus musculus [1] = test: Toxicity in tumor cell implanted NCr nu/nu mouse assessed as body weight change at 4.39 umol/kg, ip administered from day 3 to 6 after implantation measured on day 7; type: organism-based; settings: in vivo
Mus musculus [2] = test: Toxicity in tumor cell implanted NCr nu/nu mouse assessed as body weight change at 8.78 umol/kg, ip administered from day 3 to 6 after implantation measured on day 7; type: organism-based; settings: in vivo
Mus musculus [3] = test: Toxicity in tumor cell implanted NCr nu/nu mouse assessed as body weight change at 17.6 umol/kg, ip administered from day 3 to 6 after implantation measured on day 7; type: organism-based; settings: in vivo
Mus musculus [4] = test: Toxicity in tumor cell implanted NCr nu/nu mouse assessed as body weight change at 35.1 umol/kg, ip administered from day 3 to 6 after implantation measured on day 7; type: organism-based; settings: in vivo
Mus musculus [5] = test: Toxicity in NCr nu/nu mouse subcutaneously implanted with human KB cells assessed as mortality at 4.39 umol/kg, ip administered on day 10, 13, 16, 20 of implantation; type: organism-based; settings: in vivo
Mus musculus [6] = test: Toxicity in NCr nu/nu mouse subcutaneously implanted with human KB cells assessed as mortality at 8.78 umol/kg, ip administered on day 10, 13, 16, 20 of implantation; type: organism-based; settings: in vivo
Mus musculus [7] = test: Toxicity in NCr nu/nu mouse subcutaneously implanted with human KB cells assessed as mortality at 17.6 umol/kg, ip administered on day 10, 13, 16, 20 of implantation; type: organism-based; settings: in vivo
Mus musculus [8] = test: Toxicity in NCr nu/nu mouse subcutaneously implanted with human KB cells assessed as change in body weight at 4.39 umol/kg, ip administered on day 10, 13, 16, 20 of implantation; type: organism-based; settings: in vivo
Mus musculus [9] = test: Toxicity in NCr nu/nu mouse subcutaneously implanted with human KB cells assessed as change in body weight at 8.78 umol/kg, ip administered on day 10, 13, 16, 20 of implantation; type: organism-based; settings: in vivo
Mus musculus [10] = test: Toxicity in NCr nu/nu mouse subcutaneously implanted with human KB cells assessed as change in body weight at 17.6 umol/kg, ip administered on day 10, 13, 16, 20 of implantation; type: organism-based; settings: in vivo
Mus musculus [11] = test: Toxicity in NCr nu/nu mouse subcutaneously implanted with human KB cells assessed as change in body weight at 35.1 umol/kg, ip administered on day 10, 13, 16, 20 of implantation; type: organism-based; settings: in vivo
SW626 [12] = test: Growth inhibition of human SW626 cells implanted intraperitoneally to NCr nu/nu mouse at 4.39 to 35.1 umol/kg, ip administered from day 3 to 6 after implantation measured on day 7 by MTT-based hollow-fiber test; type: functional
KB [13] = test: Growth inhibition of human KB cells implanted subcutaneously to NCr nu/nu mouse at 4.39 to 35.1 umol/kg, ip administered from day 3 to 6 after implantation measured on day 7 by MTT-based hollow-fiber test; type: functional
[14] = Growth inhibition of human KBV1 cells implanted subcutaneously to NCr nu/nu mouse at 4.39 to 35.1 umol/kg, ip administered from day 3 to 6 after implantation measured on day 7 by MTT-based hollow-fiber test; type: functional, KB-V1
SW626 [15] = test: Growth inhibition of human SW626 cells implanted subcutaneously to NCr nu/nu mouse at 4.39 to 35.1 umol/kg, ip administered from day 3 to 6 after implantation measured on day 7 by MTT-based hollow-fiber test; type: functional
KB [16] = test: Growth inhibition of human KB cells implanted subcutaneously to NCr nu/nu mouse assessed as tumor size at 4.39 to 28.5 umol/kg, ip administered on day 10, 13, 16, 20 of implantation; type: functional, organism-based
SK-MEL-2 = test: Cytotoxicity against human SK-MEL-2 cells after 72 hrs by SRB assay; type: functional, cell-based; settings: SK-MEL-2, 72 h
P388 = test: Cytotoxicity against mouse P388 cells after 72 hrs by SRB assay; type: functional, cell-based; settings: P388, 72 h
LNCaP = test: Cytotoxicity against human LNCAP cells after 72 hrs by SRB assay; type: functional, cell-based
Lu1 = test: Cytotoxicity against human Lu1 cells after 72 hrs by SRB assay; type: functional, cell-based; settings: Lu1, 72 h
[17] = Cytotoxicity against human KBV1 cells after 72 hrs by SRB assay; type: functional, cell-based; settings: KB-V1, 72 h
KB [18] = test: Cytotoxicity against human KB cells after 72 hrs by SRB assay; type: functional, cell-based
Col2 = test: Cytotoxicity against human Col2 cells after 72 hrs by SRB assay; type: functional, cell-based; settings: Col2, 72 h
SW626 [19] = test: Cytotoxicity against human SW626 cells after 72 hrs by SRB assay; type: functional, cell-based; settings: SW626, 72 h
KB [20] = test: Growth inhibition of human KB cells implanted intraperitoneally to NCr nu/nu mouse at 4.39 to 35.1 umol/kg, ip administered from day 3 to 6 after implantation measured on day 7 by MTT-based hollow-fiber test; type: functional
[21] = Growth inhibition of human KBV1 cells implanted intraperitoneally to NCr nu/nu mouse at 4.39 to 35.1 umol/kg, ip administered from day 3 to 6 after implantation measured on day 7 by MTT-based hollow-fiber test; type: functional, KB-V1

Structure (SMILES): CC(=O)O[C@H]1C(=O)[C@@]2(C)[C@H]([C@H](OC(=O)c3ccccc3)[C@]3(O)C[C@H](OC(=O)[C@H](O)[C@@H](NC(=O)c4ccccc4)c4ccccc4)C(C)=C1C3(C)C)[C@]1(OC(C)=O)CO[C@@H]1C[C@@H]2O [PACLITAXEL]
- Activity (Mus musculus [1]): 1.7 g
- Activity (Mus musculus [2]): 1.4 g
- Activity (Mus musculus [3]): 1.8 g
- Activity (Mus musculus [4]): 1.1 g
- Activity (Mus musculus [5]): Non-toxic
- Activity (Mus musculus [6]): Non-toxic
- Activity (Mus musculus [7]): Non-toxic
- Activity (Mus musculus [8]): 9.4%
- Activity (Mus musculus [9]): 6.7%
- Activity (Mus musculus [10]): 8.2%
- Activity (Mus musculus [11]): 7.8%
- inhibition (INH) (SW626 [12]): 98.7%
- inhibition (INH) (KB [13]): 19.5%
- inhibition (INH) [14]: 13.1%
- inhibition (INH) (SW626 [15]): 0%
- Activity (KB [16]): inactive
- IC50 (SK-MEL-2): 70 nM
- IC50 (P388): 20 nM
- IC50 (LNCaP): 20 nM
- IC50 (Lu1): 10 nM
- IC50 [17]: > 2300 nM
- IC50 (KB [18]): 20 nM
- IC50 (Col2): 20 nM
- IC50 (SW626 [19]): 0.01 nM
- inhibition (INH) (KB [20]): 70.2%
- inhibition (INH) [21]: 0%
